Results from publication PMC10223552 (Pharmaceuticals, 2023).
“And” between values parts separate entries of the source, which are not always exact repeats. Equal entries are not always repeated. Where two headings read alike, the source gives them in different places.

Legend:
[1] = biological target: T1, gpH3R (Cavia porcellus, UniProt Q9JI35); assay: Ex vivo assay for histamine H3R antagonists on electrically stimulated guinea pig ileum
T1 construct: from tissue; host or cells: isolated distal ileum of male guinea pigs
Description: All newly synthesized compounds were evaluated as H3R antagonists/inverse agonists on the guinea pig ileum (gpH3R), stimulated electrically to induce contractions. The distinct affinity profile and species-dependent pharmacology of H3R ligands are known. […] Therefore, to compare species differences, all newly synthesized compounds were subjected to radioligand displacement assay in membrane fractions of HEK-293 cells stably expressing hH3R.
(§1) Ex vivo assay for histamine H3R and H1R antagonists were measured on the isolated guinea pig ileum stimulated to contractions by histamine. The pA2-values were calculated according to Arunlakshana and Schild. The radioligand-displacement binding assay was performed in membrane fractions of HEK-293 cells stably expressing hH3R. Cell cultivation and membrane preparation was performed according to Kottke et al.. The Ki values were calculated from the IC50 values using the Cheng–Prusoff equation [37]. The statistical calculations were performed on –log(Ki). […] The inhibitory activities of novel ADS compounds were assessed in spectrophotometric Ellman’s assay using AChE from electric eel (eeAChE) and BuChE from horse serum (eqBuChE).
3. Pharmacological assay results.
3.1. Ex vivo assay for histamine H3R receptor antagonists on guinea pig ileum.
Male guinea pigs, weighing 300-400 g were euthanized by a blow to the neck. Following this, a 20-30 cm length of the distal ileum, apart from the terminal 5 cm was rapidly removed and placed in phosphate buffer at room […]
indomethacin (Sigma-Aldrich, St. Louis, MO, USA) (1·10-6 mol/L). The intraluminal content was rinsed and the isolated intestine was cut into 1.5-2 cm segments. The preparations were mounted between two platinum electrodes […]
load of 1.0 g (Hugo Sachs Hebel-Messvorsatz (Tl-2)/HF-modem; Hugo Sachs Elektronik, Hugstetten, Germany) connected to a pen recorder (Kipp & Zonen BD41, Delft, Holland). During an equilibration period of 60 min, the Krebs buffer was changed every 10 min. The preparations were then continuously stimulated at 15-20 V at a frequency of 0.1 Hz for a duration of 0.5 ms, with rectangular-wave electrical pulses (Grass Stimulator S-88; Grass Instruments Co., Quincy, Massachusetts, USA). […] Five minutes […]
before (R)-(−)-α-methylhistamine (RAMH) (Toronto Research Chemicals Inc., North York, Canada), […]
added. The first cumulative concentration-response curve was determined to RAMH (10 nM – 10 mM) at an […]
The second to fourth curve was measured against increasing antagonist concentration (incubation time 20 min). The pA2-values were calculated according to Arunlakshana and Schild. [Br J Pharmacol Chemother. […] Statistical analysis was carried out with the Students’ t-test. In all tests, a p<0.05 was considered statistically significant. The pA2 values were compared with the affinity of thioperamide (Sigma-Aldrich, St. Louis, MO, USA).

[2] = biological target: T2, hH3R (Homo sapiens, UniProt Q9Y5N1); assay: biochemical; assay type: binding
T2 construct: expressed in transfected cells
Description: as §1, with “All newly synthesized compounds were evaluated as H3R antagonists/inverse agonists on the guinea pig ileum (gpH3R), stimulated electrically to induce contractions. The distinct affinity profile and species-dependent pharmacology of H3R ligands are known. […] Therefore, to compare species differences, all newly synthesized compounds were subjected to radioligand displacement assay in membrane fractions of HEK-293 cells stably expressing hH3R. […] Ex” for “Ex”
3.3 hH3R radioligand displacement binding assay.
The radioligand displacement binding assay was performed in membrane fractions of HEK-293 cells stably expressing hH3R. Cell cultivation and membrane preparation was performed according to Kottke et al. [T. Kottke, […]
radioligand displacement assay, radioactively labeled [3H]Nα-methylhistamine was used at a final concentration […]
The total assay volume was set to 200 µL. The compounds were tested in several appropriate concentrations between 100 µM and 0.1 nM. Pipetting was partly done by Freedom Evo® (Tecan).
The membrane fraction (20 […]
µg/well), test compounds and radiolabeled ligand were incubated for 90 minutes at 25 °C while shaking. The bound radioligand was separated from the free radioligand by filtration through GF/B filters pre-treated with 0.3 % (m/v) polyethyleneimine using a cell harvester. Radioactivity was determined by liquid scintillation counting using a MicroBeta® Trilux (Perkin Elmer). The data was obtained in duplicates in at least three independent experiments. Non-specific binding was subtracted from the raw data to calculate specific-binding values. The evaluation was performed with GraphPad Prism 6.1 (San Diego, CA, USA) using non-linear regression (one-site competition with a logarithmic scale). The Ki values were calculated from the IC50 values using the Cheng-Prusoff […]
equation. [C. […] The statistical calculations […]
were performed on –log(Ki).

T2 sequence (Q9Y5N1 whole entry): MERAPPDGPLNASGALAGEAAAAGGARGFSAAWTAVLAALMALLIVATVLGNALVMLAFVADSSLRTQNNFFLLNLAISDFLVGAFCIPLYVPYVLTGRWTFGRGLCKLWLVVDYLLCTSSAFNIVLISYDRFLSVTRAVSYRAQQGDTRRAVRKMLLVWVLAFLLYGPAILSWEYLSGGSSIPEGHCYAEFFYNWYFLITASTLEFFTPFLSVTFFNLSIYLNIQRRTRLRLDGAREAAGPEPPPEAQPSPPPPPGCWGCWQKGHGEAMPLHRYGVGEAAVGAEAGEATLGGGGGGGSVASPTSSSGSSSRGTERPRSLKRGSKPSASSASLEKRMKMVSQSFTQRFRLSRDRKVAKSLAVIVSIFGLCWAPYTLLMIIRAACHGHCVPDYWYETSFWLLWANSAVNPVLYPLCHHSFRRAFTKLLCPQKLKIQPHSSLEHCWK
T1 sequence (Q9JI35 whole entry): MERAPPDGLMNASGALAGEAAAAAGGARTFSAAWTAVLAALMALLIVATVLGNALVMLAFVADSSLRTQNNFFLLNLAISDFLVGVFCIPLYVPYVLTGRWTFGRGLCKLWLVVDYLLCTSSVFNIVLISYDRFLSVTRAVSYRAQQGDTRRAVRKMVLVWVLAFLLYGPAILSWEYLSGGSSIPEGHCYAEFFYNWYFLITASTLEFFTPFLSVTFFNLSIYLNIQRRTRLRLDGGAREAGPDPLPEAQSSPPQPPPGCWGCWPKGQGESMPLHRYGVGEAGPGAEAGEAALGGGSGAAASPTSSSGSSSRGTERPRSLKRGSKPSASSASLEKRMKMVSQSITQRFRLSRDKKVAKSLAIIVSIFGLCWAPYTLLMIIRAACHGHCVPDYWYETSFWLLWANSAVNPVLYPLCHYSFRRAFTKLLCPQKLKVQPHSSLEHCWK

| SMILES | gpH3R pA2 ± sem ([1]; isolated guinea pig ileum, vs RAMH, 20 min) | Ki ([2]; mean ± sem, at least three independent experiments, read-out: hH3R -log(Ki) ± sem (converted)) [nM] | Kb [1] [nM] | Ki ([2]; hH3R Ki) |
| --- | --- | --- | --- | --- |
| N=C(N)N(CCCCN1CCN(CCCCCCCOc2ccccc2)CC1)Cc1ccccc1 [ADS1017] | 8.21 ± 0.15 | 513 |  |  |
| Cl.Cl.N=C(NCCCCc1ccc(Cl)cc1)NCCCCN1CCCCC1 [ADS10310] |  |  | 19.1 | < 200 nM and 127 nM |
